Earlier results as cited in patent publication US7935348B2, “Combination therapy for the treatment of Alzheimer's disease” (Affiris Forschungs-und Entwicklungs GmbH, priority 2004, dated 2011).
Entries after “also recorded” stand apart in the source; their conditions may differ.

Tests used:
Aβ = details: for Aβ amount in the brain: peripheral treatment
Aβ, sequence (P05067 672-711 limits assumed): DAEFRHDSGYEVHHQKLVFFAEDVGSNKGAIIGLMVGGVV

Substance	Aβ amount in the brain (Aβ)	AD-type neuropathologies (PDAPP transgenic mouse; immunization of young animals, before onset (6 weeks))	AD-like neuropathologies (PDAPP transgenic mouse; treatment of older animals (11 months))	Aβ content in the plasma (Aβ; peripheral administration)
GM1	reduction of the Aβ amount in the brain	–	–	–
aggregated Aβ42: aggregated 42-amino acid form of amyloid-β peptide used as a "normal", not mimotope-based vaccine	–	prevented the development of plaque formation, neuritic dystrophy and astrogliosis	markedly reduced AD-like neuropathologies	–
gelsolin	reduction of the Aβ amount in the brain	–	–	not reduced; also recorded: increased Aβ content in the plasma
